Entries after “also recorded” stand apart in the source; their conditions may differ.
System: TrkB receptor and downstream proteins (PLCγ1, Akt1, ERK1/2)
Assay: Pharmacodynamics: immunoblot of hippocampus and frontal cortex
Assay type: in vivo, BALB/c mice
Conditions: 30 min and 2 h after 50 mg/kg p.o.
Procedure: Compound treatment was stopped by lysing cells with N-PER™ Neuronal Protein Extraction Reagent (Thermo Fisher Scientific) containing 1 × PhosSTOP™ (Roche, Basel, Switzerland), 1 × Halt Protease Inhibitor Single-Use Cocktail (ThermoFisher Scientific) and 5 mM EDTA. The lysates were collected by scraping, and centrifuged (8000× g; 10 min at 4 °C), and the protein concentration was determined using a BCA Pierce kit (ThermoFisher Scientific). The lysates were stored at −80 °C until further processing. Samples containing 20 μg of protein were further denatured in 4 × Laemli Buffer with 5% β-mercaptoethanol at 95 °C for 5 min and electrophoresed on gels prepared using a 10% TGX Stain-Free™ FastCast™ Acrylamide Kit (Bio-Rad). Afterwards, the proteins were transferred (wet transfer, 100 V, 60 min) onto nitrocellulose membranes (GE Healthcare, Chicago, IL, USA), which were blocked in 5% BSA in TBS-T (TBS + 0.1% Tween20) for 2 h. […] After repeated washes (TBS-T), the proteins were detected with HRP-conjugated anti-rabbit antibodies (1:4000, RT, 2 h) (Cell Signaling Technology), and the blots were incubated with Clarity Max ECL Western Blotting Substrate (Bio-Rad). Blot images and chemiluminescence signals were captured using a ChemiDoc MP Imaging System, and densitometry values were calculated using the Image Lab software (Bio-Rad). […]

O=c1cc(-c2ccccc2)oc2c(O)c(O)ccc12 [7,8-DHF, 7,8-dihydroxyflavone]
Activation of the TrkB receptor (phosphorylation): did not observe any activation; also recorded: no effect
PLCγ1, Akt1, and ERK1/2 phosphorylation: no impact

— PMC8398766, “Do Small Molecules Activate the TrkB Receptor in the Same Manner as BDNF? Limitations of Published TrkB Low Molecular Agonists and Screening for Novel TrkB Orthosteric Agonists” (Pharmaceuticals, 2021)
